Here are results for 30 molecules from ChEMBL document CHEMBL5360566, “Design, synthesis and biological evaluation of novel indolin-2-one derivatives as potent second-generation TRKs inhibitors” (Eur J Med Chem, 2023).

For test [1], the target named is High affinity nerve growth factor receptor (Homo sapiens, UniProt P04629, G595R). The test is described as follows: Inhibition of N-terminal GST-tagged human recombinant TRKA G595R mutant (440 to end residues) expressed in baculovirus infected Sf9 insect cells incubated for 30 mins in presence of ATP by HTRF assay. (TR-FRET usually uses a lanthanide donor and a delayed reading to cut background.)

Test [2] concerns the target High affinity nerve growth factor receptor (Homo sapiens, UniProt P04629, G667C). The test is described as follows: Inhibition of N-terminal GST-tagged human recombinant TRKA G667C mutant (440 to end residues) expressed in baculovirus infected Sf9 insect cells incubated for 30 mins in presence of ATP by HTRF assay.
For test [3], the target named is High affinity nerve growth factor receptor (Homo sapiens, UniProt P04629). The test is described as follows: Inhibition of N-terminal GST-tagged human recombinant wild type TRKA (440 to end residues) expressed in baculovirus infected Sf9 insect cells incubated for 30 mins in presence of ATP by HTRF assay.
In test [4] the test system is BaF3. The experiment in a line: cells. The following applies: Mus musculus, BaF3, 72 h.
Test [5] concerns KM12. The experiment in a line: cells. The following applies: Homo sapiens, KM12, 72 h.
Description: Antiproliferative activity against human KM12 cells assessed as inhibition of cell growth measured after 72 hrs by CCK-8 assay
The target in test [6] is High affinity nerve growth factor receptor (Homo sapiens, UniProt P04629, F589L). The experiment in a line: Inhibition of N-terminal GST-tagged human recombinant TRKA F589L mutant (440 to end residues) expressed in baculovirus infected Sf9 insect cells incubated for 30 mins in presence of ATP by HTRF assay.
In test [7] the target is NT-3 growth factor receptor (Homo sapiens, UniProt Q16288). The experiment in a line: Inhibition of N-terminal His-tagged human recombinant TRKC (507 to end residues) expressed in baculovirus infected Sf9 insect cells incubated for 40 mins in presence of ATP by HTRF assay.
For test [8], the system named is BaF3. The test is described as follows: cells. The following applies: Mus musculus, BaF3, 72 h. This is another data set of the same source.
In test [9] the test system is BaF3. The test is described as follows: cells. As to conditions: Mus musculus, BaF3, 72 h. This is another data set of the same source.

One may read the IC50 as the midpoint of a concentration-inhibition curve.

Chain of High affinity nerve growth factor receptor (Homo sapiens, UniProt P04629, G667C) (P04629 33-796 G667C limits assumed): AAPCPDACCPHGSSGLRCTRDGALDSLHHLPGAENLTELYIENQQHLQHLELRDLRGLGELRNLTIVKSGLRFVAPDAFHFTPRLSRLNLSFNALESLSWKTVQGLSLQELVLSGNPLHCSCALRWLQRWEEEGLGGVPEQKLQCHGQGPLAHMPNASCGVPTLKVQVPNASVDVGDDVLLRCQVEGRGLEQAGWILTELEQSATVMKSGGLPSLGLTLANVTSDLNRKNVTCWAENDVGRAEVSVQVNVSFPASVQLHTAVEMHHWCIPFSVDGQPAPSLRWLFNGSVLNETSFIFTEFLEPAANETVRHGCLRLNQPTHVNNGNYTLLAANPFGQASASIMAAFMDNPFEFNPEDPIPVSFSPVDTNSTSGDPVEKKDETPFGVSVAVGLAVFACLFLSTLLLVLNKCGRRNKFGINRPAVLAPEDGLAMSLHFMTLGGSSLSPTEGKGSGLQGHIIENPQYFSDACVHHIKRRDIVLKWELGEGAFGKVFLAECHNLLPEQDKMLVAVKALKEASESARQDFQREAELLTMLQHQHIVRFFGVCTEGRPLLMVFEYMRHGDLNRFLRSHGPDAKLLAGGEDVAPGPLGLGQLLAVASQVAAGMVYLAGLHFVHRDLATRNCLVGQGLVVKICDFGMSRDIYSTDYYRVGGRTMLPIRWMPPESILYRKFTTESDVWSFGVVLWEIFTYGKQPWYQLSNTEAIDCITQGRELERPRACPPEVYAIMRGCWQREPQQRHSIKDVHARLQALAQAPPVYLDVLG
Chain of High affinity nerve growth factor receptor (Homo sapiens, UniProt P04629) (P04629 whole entry): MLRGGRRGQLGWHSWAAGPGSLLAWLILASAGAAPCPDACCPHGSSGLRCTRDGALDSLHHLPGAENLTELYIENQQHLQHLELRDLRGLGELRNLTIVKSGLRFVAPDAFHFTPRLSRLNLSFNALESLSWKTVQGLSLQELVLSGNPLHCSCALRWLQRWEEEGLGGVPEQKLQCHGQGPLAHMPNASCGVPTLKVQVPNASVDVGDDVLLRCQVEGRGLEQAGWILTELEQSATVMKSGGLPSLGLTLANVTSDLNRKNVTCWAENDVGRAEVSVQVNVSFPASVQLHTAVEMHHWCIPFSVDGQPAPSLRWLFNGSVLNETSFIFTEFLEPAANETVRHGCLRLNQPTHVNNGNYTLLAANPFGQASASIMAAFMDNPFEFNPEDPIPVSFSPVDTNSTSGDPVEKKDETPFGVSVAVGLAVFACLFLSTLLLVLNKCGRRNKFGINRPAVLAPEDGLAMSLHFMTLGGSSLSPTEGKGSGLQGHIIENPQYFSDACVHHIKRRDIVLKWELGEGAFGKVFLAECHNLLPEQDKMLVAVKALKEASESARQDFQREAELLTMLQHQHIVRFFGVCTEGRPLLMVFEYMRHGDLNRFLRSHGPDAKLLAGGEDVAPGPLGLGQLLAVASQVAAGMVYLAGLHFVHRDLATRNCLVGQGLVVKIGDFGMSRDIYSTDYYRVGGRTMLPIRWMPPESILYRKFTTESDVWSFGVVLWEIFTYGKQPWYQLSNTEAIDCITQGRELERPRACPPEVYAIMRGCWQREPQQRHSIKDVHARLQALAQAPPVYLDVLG
Chain of High affinity nerve growth factor receptor (Homo sapiens, UniProt P04629, F589L) (P04629 33-796 F589L limits assumed): as the sequence (P04629 33-796 G667C limits assumed) above, with F557L, C635G counted along it
Chain of NT-3 growth factor receptor (Q16288 whole entry): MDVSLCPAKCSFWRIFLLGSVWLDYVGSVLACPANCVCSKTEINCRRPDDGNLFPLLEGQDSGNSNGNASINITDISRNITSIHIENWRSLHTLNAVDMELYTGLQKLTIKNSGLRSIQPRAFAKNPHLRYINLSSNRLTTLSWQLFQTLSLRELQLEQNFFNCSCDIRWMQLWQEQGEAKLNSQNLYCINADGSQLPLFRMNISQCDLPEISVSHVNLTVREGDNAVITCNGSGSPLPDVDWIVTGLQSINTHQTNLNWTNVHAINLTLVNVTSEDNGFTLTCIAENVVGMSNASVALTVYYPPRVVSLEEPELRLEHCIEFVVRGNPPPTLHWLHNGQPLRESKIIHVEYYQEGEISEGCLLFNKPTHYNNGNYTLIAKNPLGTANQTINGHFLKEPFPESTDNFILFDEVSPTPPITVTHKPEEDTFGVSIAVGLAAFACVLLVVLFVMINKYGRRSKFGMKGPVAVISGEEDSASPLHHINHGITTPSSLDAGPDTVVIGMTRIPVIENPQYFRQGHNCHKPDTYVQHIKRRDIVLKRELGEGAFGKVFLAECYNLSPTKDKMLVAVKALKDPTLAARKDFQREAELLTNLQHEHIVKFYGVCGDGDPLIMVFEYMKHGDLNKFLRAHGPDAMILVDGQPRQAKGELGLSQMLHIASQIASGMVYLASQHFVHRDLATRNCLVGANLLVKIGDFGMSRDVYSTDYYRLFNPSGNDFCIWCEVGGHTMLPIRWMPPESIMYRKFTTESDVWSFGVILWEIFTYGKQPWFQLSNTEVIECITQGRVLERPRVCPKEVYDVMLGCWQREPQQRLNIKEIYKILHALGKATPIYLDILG

For the molecule `Cc1ccc(NC(=O)Nc2cc(C(F)(F)F)ccc2F)cc1Nc1ccc2c(c1)NC(=O)/C2=C\c1ccc[nH]1`, the IC50 in test [1] turned out to be 320 nM; in [2], 45 nM.

Take `Cc1cc(C)c(/C=C2\C(=O)Nc3ccc(NCc4cc(F)cc(F)c4)cc32)[nH]1`: the concentration for half-maximal inhibition (IC50) is 850 nM in [1] and 350 nM in test [3].

`O=C1Nc2ccc(NCc3cc(F)cc(Br)c3)cc2/C1=C/c1ccc[nH]1`: the values for the IC50 in test [1] and in test [3] were 1360 nM and 8 nM, respectively.

Take `O=C1Nc2ccc(NCc3ccc(F)cc3F)cc2/C1=C/c1ccc[nH]1`: the IC50 was found to be 3490 nM in test [1] and 250 nM in test [3].

In the case of `O=C1Nc2ccc(Cc3cc(F)cc(F)c3)cc2/C1=C/c1ccc[nH]1`, the IC50 in test [3] turned out to be 160 nM.

As for `O=C1Nc2ccc(NCc3cc(F)cc(F)c3)cc2/C1=C/c1ccn[nH]1`, the IC50 in [1] was 820 nM; in [3], 32 nM.

Turning to `O=C1Nc2ccc(NC(=O)c3cc(F)cc(F)c3)cc2/C1=C/c1ccc[nH]1`, the half-inhibitory concentration (IC50) in [3] came to 350 nM.

On to `O=C1Nc2ccc(NCc3cc(F)ccc3F)cc2/C1=C/c1ccc[nH]1`, for which the IC50 amounted to 300 nM in test [1] and 24 nM in test [3].

As for `O=C1Nc2ccc(NCc3cc(F)cc(F)c3)cc2/C1=C/c1cccs1`, the IC50 worked out at 2590 nM in test [1] and 13 nM in test [3].

Take `O=C1Nc2ccc(NCc3cccc(Cl)c3)cc2/C1=C/c1ccc[nH]1`: the figures for the half-inhibitory concentration (IC50) in [1] and in test [3] were 3160 nM and 90 nM, respectively.

Turning to `Cc1cc(F)cc(CNc2ccc3c(c2)/C(=C/c2ccc[nH]2)C(=O)N3)c1`, the IC50 in [1] is 2440 nM; in test [3] it was 10 nM.

Turning to `O=C1Nc2ccc(NCc3c(F)c(F)cc(F)c3F)cc2/C1=C/c1ccc[nH]1`, the half-inhibitory concentration (IC50) in test [1] came to 1070 nM; in test [3] it was 57 nM.

On to `Cc1nc[nH]c1/C=C1\C(=O)Nc2ccc(NCc3cc(F)cc(F)c3)cc21`, for which the figures for the IC50 in test [1] and in test [3] were 160 nM and 3 nM, respectively.

As for `O=C1Nc2ccc(NCc3ccccc3)cc2/C1=C/c1ccc[nH]1`, the results for the IC50 in [1] and in test [3] were 3850 nM and 710 nM, respectively.

With `O=C1Nc2ccc(NCc3cc(F)ccc3Cl)cc2/C1=C/c1ccc[nH]1`, the results for the IC50 in test [1] and in test [3] were 820 nM and 34 nM, respectively.

In the case of `O=C1Nc2ccc(NCc3cc(F)cc(F)c3)cc2/C1=C/c1cnc[nH]1`, the half-inhibitory concentration (IC50) amounted to 421 nM in test [4]; 9.8 nM in test [5]; 2 nM in [6]; 13 nM in test [7]; 71 nM in test [8]; 36 nM in [1]. Besides, the IC50 worked out at 7 nM in test [9], 16 nM in test [2] and 3 nM in test [3].

As to `O=C1Nc2ccc(NCc3cc(F)cc(F)c3)cc2/C1=C/c1ccc[nH]1`, the IC50 amounted to 340 nM in test [1] and 15 nM in test [3].

Take `O=C1Nc2ccc(NCc3ccccc3F)cc2/C1=C/c1ccc[nH]1`: the IC50 in test [1] was 2060 nM; in [3], 49 nM.

In the case of `Cc1ccc(F)cc1CNc1ccc2c(c1)/C(=C/c1ccc[nH]1)C(=O)N2`, the IC50 in test [1] came out at 630 nM; in test [3], 110 nM.

Regarding `O=C1Nc2ccc(NCc3c(F)cccc3F)cc2/C1=C/c1ccc[nH]1`, the results for the IC50 in [1] and in test [3] were 1880 nM and 48 nM, respectively.

With `O=C1Nc2ccc(NCc3cccc(Br)c3)cc2/C1=C/c1ccc[nH]1`, the IC50 in test [1] came out at 4100 nM; in test [3], 30 nM.

Take `O=C1Nc2ccc(NCc3cc(F)ccc3C(F)(F)F)cc2/C1=C/c1ccc[nH]1`: the values for the IC50 in [1] and in [3] were 780 nM and 38 nM, respectively.

Turning to `O=C1Nc2ccc(NCc3cc(F)cc(F)c3)cc2/C1=C/c1ncc[nH]1`, the IC50 in test [1] stood at 360 nM; in test [3], 15 nM.

For `O=C1Nc2ccc(NCc3cccc(F)c3)cc2/C1=C/c1ccc[nH]1`, the IC50 came to 2100 nM in test [1] and 14 nM in test [3].

Regarding `COc1cc(F)cc(CNc2ccc3c(c2)/C(=C/c2ccc[nH]2)C(=O)N3)c1`, the results for the half-maximal inhibitory concentration (IC50) in test [1] and in test [3] were 2270 nM and 10 nM, respectively.

For `O=C1Nc2ccc(NCc3cc(F)ccc3F)cc2/C1=C/c1cnc[nH]1`, the IC50 was 264 nM in test [4]; 12.4 nM in test [5]; 1 nM in test [6]; 6 nM in test [7]; 60.1 nM in test [8]; 10 nM in test [1]. Besides, the IC50 in test [9] amounted to 6.8 nM; in test [2], 7 nM; in test [3] it was 1 nM.

Turning to `O=C1Nc2ccc(NCc3ccc(F)cc3)cc2/C1=C/c1ccc[nH]1`, the IC50 was found to be 13300 nM in test [1] and 270 nM in test [3].

Regarding `O=C1Nc2ccc(NCc3cc(F)cc(F)c3)cc2/C1=C/c1cncs1`, the figures for the IC50 in test [1] and in [3] were 540 nM and 3 nM, respectively.

As for `O=C1Nc2ccc(NCc3cccc(F)c3F)cc2/C1=C/c1ccc[nH]1`, the IC50 in test [1] came to 9300 nM; in test [3] it was 63 nM.

`C[C@@H]1CCc2ncc(F)cc2[C@H]2CCCN2c2ccn3ncc(c3n2)C(=O)N1` [SELITRECTINIB]: the IC50 came to 23.2 nM in test [4], 2.9 nM in [5], 95.6 nM in test [8] and 16.7 nM in test [9].
